Test: In vitro glycosyl transferase performance, purified enzymes, % conversion of cannabinoids to cannabinoid glycosides
Type: biochemical
Conditions: for Conversion % (11-nor-9-carboxy-THC-glycoside produced): substrate 11-nor-9-carboxy-THC, enzyme PL-113(Tc90A_GA); for Conversion % (CBD to the glycoside): acceptor CBD; for Conversion % (THC-glycoside produced): substrate THC; for Conversion % (CBDV to the glycoside): acceptor CBDV; for Conversion % (CBG to the glycoside): acceptor CBG
Protocol: For in vitro studies of glycosyl transferase performance in glycosylating cannabinoids, purified Glycosyl transferases were prepared as follows:
5 mL of 2× concentrated LB medium+Ampicillin (50 μg/m L) was inoculated with E. coli XJb (DE3) strains expressing a glycosyl transferase of interest and incubated overnight at 30° C. with shaking. The following day, cell cultures were transferred into 500 mL of 2× concentrated LB medium+Ampicillin (50 μg/mL) and incubated overnight at 30° C. with shaking. The following day, the cell cultures were transferred to 1 L of 2× concentrated LB medium+Ampicillin (50 μg/mL)+3 mM arabinose+0.1 mM IPTG. Cells were incubated for 24 h at 20° C. with shaking. The following day, the cells were collected by centrifugation at 46500×g for 10 mins at 4° C. Cells were resuspended in 20 mL ice-cold GT buffer (50 mM Tris-HCl pH7.4+1 mM phenylmethanesulfonyl fluoride+1 cOmplete™, mini, EDTA-free Protease Inhibitor Cocktail tablet (Roche)). The resuspended material was transferred to a 50 mL falcon tube and kept at −80° C. for at least 15 mins. Falcon tubes were then thawed at room temperature, as the tubes were thawing the following reagents were added; 2.6 mM MgCl2, 1 mM CaCl2, 250 μL of a 1.4 mg/ml DNase solution (Sigma) dissolved in MilliQ water. Tubes were gently inverted to mix then were incubated for 5 mins at 37° C. Binding buffer was then added to the tubes (50 mM Tris-HCl pH7.4, 10 mM imidazole, 500 mM NaCl. 11.25 mL MilliQ water) and the pH adjusted to 7.4 with HCl. The mix was centrifuged at 15550×g for 15 mins at 4° C., the supernatant transferred to a fresh 50 mL falcon tubes and centrifuged again to remove any remaining cellular debris at 48400×g for 20 minutes at 4° C. While the enzyme prep was centrifuging, 3 mL of HIS-Select (available from Sigma P6611) column material was added to a fresh 50 mL tube and washed by adding MilliQ water up to 50 mL, centrifuging at 2000×g for 2 mins and discarding the supernatant. This washing step was repeated. Finally, MilliQ water was added to the HIS-Select material to an approximate 50% volume. Collected supernatant from the centrifuged enzyme preparation was transferred to the tube containing the HIS-Select material through a Miracloth (available from Merck Millipore), and then incubated at 4° C. with gently shaking by inversion for 2 h. After 2 h the mix was centrifuged at 2000×g for 4 minutes at 4° C. and the supernatant discarded. The remaining HIS-Select material was washed twice with 1× binding buffer (50 mM Tris-HCl, 0.5M NaCl, 10 mM Imidazole, pH 7.4) with centrifugation at 2000×g for 4 minutes at 4° C. The HIS-Select material was resuspended in 5 mL 1× binding buffer and transferred to a Poly-Prep®Chromatography Column (available from BioRad, 7311550). The HIS-Select material was kept at 4° C. and washed twice with 1× binding buffer by filling up the column and allowing it to drip through. Finally, purified Glycosyl transferases were eluted from the HIS-Select material by adding 7.5 mL of elution buffer (50 mM Tris-HCl, 500 mM Imidazole, pH7.4) and collecting the flow through. Enzymes were used immediately in in vitro enzyme assays or stored at −20° C. in 50% glycerol until needed.
In vitro conversion of various cannabinoids to cannabinoid glycosides was carried out according to table 21. Alkaline phosphatase was provided by New England Biolabs (M0371S). Cannabinoids were dissolved in methanol. The UDP-sugar (e.g. UDP-glucose) was provided by a commercial supplier (e.g. Sigma) or produced by in vitro enzymatic conversion from a commercially available UDP-sugar as shown in Example 21.
The reaction mixture was scaled up or down as required. The reaction mixture was incubated without shaking at 30° C. for 24 hours. Extraction and analysis were performed as described above for this example. […]

[1] = UDP-Xylose, enzyme PL-214(Cs73Y_GA)
[2] = UDP-Glucose, enzyme PL-214(Cs73Y_GA)

11-nor-9-carboxy-THC-1′-O-β-D-di-glucoside [OB42]
Conversion % (11-nor-9-carboxy-THC-glycoside produced) (sugar donor UDP-Glucose): 3.4%

C=C(C)C1CCC(C)=CC1c1c(O)cc(CCCCC)cc1O[C@@H]1O[C@H](CO)[C@@H](O)[C@H](O[C@@H]2O[C@H](CO)[C@@H](O)[C@H](O)[C@H]2O)[C@H]1O (stereo partly drawn) [OB2, CBD-1′-O-β-D-laminaribioside]
Conversion % (CBD to the glycoside) (UDP-Glucose, enzymes PL-159(Pt88G_GA) + PL-55(Sr76G1_GA)): 80.7%

C=C(C)C1CCC(C)=CC1c1c(O)cc(CCCCC)cc1OC1OC(COC2OC(CO)C(O)C(O)C2O)C(O)C(O)C1O (stereo not shown) [OB3]
Conversion % (CBD to the glycoside) (UDP-Glucose, enzymes PL-159(Pt88G_GA) + PL-152(Si94D_GA)): 96.4%

C=C(C)C1CCC(C)=CC1c1c(O)cc(CCCCC)cc1O[C@@H]1OC[C@@H](O)[C@H](O)[C@H]1O (stereo partly drawn) [OB9, CBD-1′-O-β-D-xyloside]
Conversion % (CBD to the glycoside) (UDP-Xylose, enzyme PL-159(Pt88G_GA)): 12.4%

C=C(C)C1CCC(C)=CC1c1c(O)cc(CCCCC)cc1OC1OC(C(=O)O)C(O)C(O)C1O (stereo not shown) [OB14]
Conversion % (CBD to the glycoside) (UDP-Glucuronic Acid, enzyme PL-214(Cs73Y_GA)): 2.0%

C=C(C)C1CCC(C)=CC1c1c(O)cc(CCCCC)cc1OC1OC(CO)C(O)C(O)C1O (stereo not shown) [OB16]
Conversion % (CBD to the glycoside) (UDP-Galactose, enzyme PL-214(Cs73Y_GA)): 62%

CCCCCc1cc(O[C@@H]2O[C@H](CO)[C@@H](O)[C@H](O)[C@H]2O)c2c(c1)OC(C)(C)[C@@H]1CCC(C)=C[C@@H]21 [OB20, THC-1′-O-β-D-glucoside]
Conversion % (THC-glycoside produced) (sugar donor UDP-Glucose, enzyme PL-182(Ha88B_2_GA)): 74.9%

CCCCCc1cc(OC2OCC(O)C(O)C2O)c2c(c1)OC(C)(C)C1CCC(C)=CC21 (stereo not shown) [OB21]
Conversion % (THC-glycoside produced) (sugar donor UDP-Xylose, enzyme PL-214(Cs73Y_GA)): 19.5%

C=C(C)[C@@H]1CCC(C)=C[C@H]1c1c(O)cc(CCC)cc1O[C@@H]1O[C@H](CO)[C@@H](O)[C@H](O)[C@H]1O [OB24, CBDV-1′-O-β-D-glucoside]
Conversion % (CBDV to the glycoside) (UDP-Glucose, enzyme PL-326(Ha72B_GA)): 92.6%

C=C(C)[C@@H]1CCC(C)=C[C@H]1c1c(O[C@@H]2O[C@H](CO)[C@@H](O)[C@H](O)[C@H]2O)cc(CCC)cc1O[C@@H]1O[C@H](CO)[C@@H](O)[C@H](O)[C@H]1O [OB25, CBDV-1′-O-β-O-glucosyl-3′-O-β-D-glucoside]
Conversion % (CBDV to the glycoside) (UDP-Glucose, enzyme PL-342(Cp73B_GA)): 4.5%

C=C(C)C1CCC(C)=CC1c1c(O)cc(CCC)cc1OC1OCC(O)C(O)C1O (stereo not shown) [OB29]
Conversion % (CBDV to the glycoside) [1]: 12.1%

C=C(C)C1CCC(C)=CC1c1c(OC2OC(CO)C(O)C(O)C2O)cc(CCCCC)c(C(=O)O)c1O [OB31, CBDA-1′-O-β-D-glucoside]
Conversion % (CBDA to the glycoside) (acceptor CBDA, UDP-Glucose, enzyme PL-214(Cs73Y_GA)): 92%

CCCCCc1cc(O)c(C/C=C(\C)CCC=C(C)C)c(O[C@@H]2O[C@H](CO)[C@@H](O)[C@H](O)[C@H]2O)c1 [OB32, CBG-1′-O-β-D-glucoside]
Conversion % (CBG to the glycoside) (UDP-Glucose, enzyme PL-340(Qs72S_1_GA)): 98.9%

CCCCCc1cc(O[C@@H]2O[C@H](CO)[C@@H](O)[C@H](O)[C@H]2O)c(C/C=C(\C)CCC=C(C)C)c(O[C@@H]2O[C@H](CO)[C@@H](O)[C@H](O)[C@H]2O)c1 [OB33, CBG-1′-O-β-D-glucosyl-3′-O-β-D-glucoside]
Conversion % (CBG to the glycoside) (UDP-Glucose, enzyme PL-5(At73C5_GA)): 4.5%

CCCCCc1cc(O)c(C/C=C(\C)CCC=C(C)C)c(O[C@@H]2OC[C@@H](O)[C@H](O)[C@H]2O)c1 [OB36]
Conversion % (CBG to the glycoside) [1]: 1.0%

CCCCCc1cc(O[C@@H]2O[C@H](CO)[C@@H](O)[C@H](O)[C@H]2O)c2c(c1)OC(C)(C)[C@@H]1CCC(C(=O)O)=C[C@@H]21 [OB41, 11-nor-9-carboxy-THC-1′-O-β-D-glucoside]
Conversion % (11-nor-9-carboxy-THC-glycoside produced) (sugar donor UDP-Glucose): 70.2%

CBD-1′-O-β-D-glucosyl-3′-O-β-D-di-glucoside [OB8]
Conversion % (CBD to the glycoside) [2]: 12.3%

CBD-1′-O-β-D-tri-glucoside [OB7]
Conversion % (CBD to the glycoside) [2]: 27.3%

CBG-1′-O-β-D-tetra-xyloside [OB40]
Conversion % (CBG to the glycoside) [1]: 1.2%

CBN-1′-O-β-D-di-glucoside [OB23]
Conversion % (CBN-glycoside produced) (substrate CBN, sugar donor UDP-Glucose, enzyme PL-342(Cp73B_GA)): 100%

B1: Cp7.38: glycosyl transferase, SEQ ID NO: 191, 192 (protein)
chain: MGSEVLHHDYSQLNIFFFPFMAHGHMIPTLDMAKLFATHGAKTSIITTPLNLPFFSKSIERFSKQTGLEIGVKLLNFPSVEVGLPSGCENADSLPAGEPLIVNKFFAAAGMLKDPLERLLQEFKPDCLIADMFFPWTTDAAAKFDIPRLVFHGTSFFALSASECIRLYTPFNNVSSDSEPFLVPTLPDEIRLTRNQLADFAMKEGDENGIHRLIKEAKESELKSYGVVVNSFYELEPAYADHYRNFLKRKAWHIGPVSLCNKTVEDKAERGKRASIDEDECLKWLNSKAPNSVIYICFGSMANFNSAQLMEIATALDASGQEFIWVVRREKNENNQEDWLPEGFEQRTEGKGLIIRGWAPQVLILEHEAVGGFVTHCGWNSTLEGVTAGMPMVTWPVSAEQFYNEKLVTEVLKIGLSVGVKKWVRSEGDFVSREKVEQAVREIMVGSEAVERRMRAKAMADMARAAVEKGGSSYNDLNALLREVSLMRRQQSQNQ
conversion of cannabinoid aglycone to cannabinoid glycoside in 24 h (CBN to CBN-1′-O-β-D-di-glucoside (OB23)): 100%

B2: Pt78G: glycosyl transferase, SEQ ID NO: 165, 166 (protein)
chain: MSEARNDLKHIAVLAFPVATHGPPLLSLVRRLSASASYAKFSFFSTKESNSKLFSKEDGLENIKPYNVSDGLPENYNFAGNLDEVMNYFFKATPGNFKQAMEVAVKEVGKDFTCIMSDAFLWFAADFAQELHVPWVPLWTSSSRSLLLVLETDLVHQKMRSIINEPEDRTIDILPGFSELRGSDIPKELFHDVKESQFAAMLCKIGLALPQAAVVASNSFEELDPDAVILFKSRLPKFLNIGPFVLTSPDPFMSDPHGCLEWLDKQKQESVVYISFGSVISLPPQELAELVEALKECKLPFLWSFRGNPKEELPEEFLERTKEKGKVVSWTPQLKVLRHKAIGVFVTHSGWNSVLDSIAGCVPMICRPFFGDQTVNTRTIEAVWGTGLEIEGGRITKGGLMKALRLIMSTDEGNKMRKKLQHLQGLALDAVQSSGSSTKNFETLLEVVAK
conversion of cannabinoid aglycone to cannabinoid glycoside in 24 h (CBG to CBG-1′-O-β-D-glucosyl-3′-O-β-D-glucoside (OB33)): 100%

— patent US20220290200A1, “GENETICALLY MODIFIED HOST CELLS PRODUCING GLYCOSYLATED CANNABINOIDS” (OCTARINE BIO IVS, priority 2019, published 2022)
